Test results from patent US10081635B2, “Substituted N-(pyrrolidine-3-yl)-7H-pyrrolo[2,3-D]pyrimidine-4-amine as janus kinase inhibitor” (YANG JI CHEMICAL CO., LTD., priority 2014, dated 2018).

Tests used:
Assay type in all cases: biochemical
[1] = biological target: Human TYK2 (Homo sapiens (Human), UniProt P29597); experiment: In vitro kinase inhibition test, TYK2 (33P-ATP filter scintillation); conditions: compound at 1 uM; read-out: TYK2 kinase-phosphorylation inhibitory level (% inhibition)
Human TYK2, sequence (P29597 whole entry): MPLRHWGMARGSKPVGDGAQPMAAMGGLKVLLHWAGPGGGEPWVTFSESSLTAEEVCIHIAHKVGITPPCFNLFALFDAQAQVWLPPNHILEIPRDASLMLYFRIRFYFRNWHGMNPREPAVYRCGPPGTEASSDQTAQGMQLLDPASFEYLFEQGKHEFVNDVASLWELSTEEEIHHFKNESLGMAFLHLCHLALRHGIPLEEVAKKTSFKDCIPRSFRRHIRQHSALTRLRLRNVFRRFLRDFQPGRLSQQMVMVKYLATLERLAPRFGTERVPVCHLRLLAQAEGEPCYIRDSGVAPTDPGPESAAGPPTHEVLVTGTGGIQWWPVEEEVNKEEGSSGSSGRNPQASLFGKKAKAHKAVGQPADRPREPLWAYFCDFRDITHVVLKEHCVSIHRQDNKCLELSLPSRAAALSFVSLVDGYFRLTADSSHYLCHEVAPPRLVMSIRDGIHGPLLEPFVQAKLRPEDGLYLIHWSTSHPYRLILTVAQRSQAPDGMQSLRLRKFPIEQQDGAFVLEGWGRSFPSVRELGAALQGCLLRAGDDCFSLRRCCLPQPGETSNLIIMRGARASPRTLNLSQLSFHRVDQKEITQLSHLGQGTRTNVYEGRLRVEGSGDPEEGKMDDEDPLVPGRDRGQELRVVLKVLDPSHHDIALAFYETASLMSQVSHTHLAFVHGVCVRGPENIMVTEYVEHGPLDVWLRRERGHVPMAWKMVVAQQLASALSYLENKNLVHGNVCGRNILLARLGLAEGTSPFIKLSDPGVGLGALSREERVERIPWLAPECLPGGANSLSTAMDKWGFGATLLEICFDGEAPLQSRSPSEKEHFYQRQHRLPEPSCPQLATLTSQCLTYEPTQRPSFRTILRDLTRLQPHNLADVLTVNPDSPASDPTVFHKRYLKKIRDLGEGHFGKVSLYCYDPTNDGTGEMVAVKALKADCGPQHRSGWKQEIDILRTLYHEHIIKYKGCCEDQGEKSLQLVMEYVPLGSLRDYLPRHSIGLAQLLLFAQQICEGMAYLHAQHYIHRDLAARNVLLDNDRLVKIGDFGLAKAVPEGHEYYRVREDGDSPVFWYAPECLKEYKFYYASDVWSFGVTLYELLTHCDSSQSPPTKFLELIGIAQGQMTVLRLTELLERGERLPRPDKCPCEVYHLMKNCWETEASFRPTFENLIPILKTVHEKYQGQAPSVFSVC
Procedure: (§1) 1. In Vitro Kinase Inhibition Test
(§2) Kinases used were human-derived JAK1, JAK2, JAK3, and TYK2 (Millipore, Germany). Each of these kinases was diluted with a suitable buffer solution as described below, and then mixed with reagents.
(§3) 3-morpholinopropane-1-sulfonic acid (MOPS) and EDTA were dissolved in distilled water at a concentration of 20 mM and 1 mM, respectively, and 100 uL of β-mercaptoethanol, 10 uL of Brij-35™, 5 mL of glycerol, and 100 mg of bovine serum albumin (BSA), each per 100 mL of the solution, were added to the solution, thereby preparing a JAK2, JAK3, and TYK2 dilution buffer solution.
(§4) Each compound was dissolved in a 100% DMSO solution at a 50 uM concentration. This solution was reacted with reagents in wells on a 96-well plate to reach a final concentration of 1 uM. Detailed experimental methods for each kinase are described below.
(§5) After reaction for about 40 minutes at room temperature, the reaction was stopped by adding 5 uL of a 3% (v/v) phosphoric acid solution.
(§6) In Tables 5 and 6, the numbers in the “Example” column, which are identification numbers of the examples, indicate the compounds synthesized in the corresponding examples, the values in the “JAK1”, “JAK2”, “JAK3”, and “TYK2” columns represent kinase-phosphorylation inhibitory levels as a percentage (%) of the compounds synthesized in the corresponding examples at a 1 uM concentration. In Tables 5 and 6, negative values substantially indicate no inhibitory effect.
(§7) The inhibitory levels (% inhibition) represent a percentage of reduction in phosphorylation activity in each test group with respect to the phosphorylation activity of a corresponding kinase in a negative control group lacking any of the compounds synthesized in the examples. % inhibition=[(Scintillation value of Test compound non-treatment group−Scintillation value of Test compound treatment group)/(Scintillation value of Test compound non-treatment group)]×100

[2] = biological target: Human JAK1 (Homo sapiens (Human), UniProt P23458); experiment: In vitro kinase inhibition test, JAK1 (33P-ATP filter scintillation); conditions: compound at 1 uM; read-out: JAK1 kinase-phosphorylation inhibitory level (% inhibition)
Human JAK1, sequence (P23458 whole entry): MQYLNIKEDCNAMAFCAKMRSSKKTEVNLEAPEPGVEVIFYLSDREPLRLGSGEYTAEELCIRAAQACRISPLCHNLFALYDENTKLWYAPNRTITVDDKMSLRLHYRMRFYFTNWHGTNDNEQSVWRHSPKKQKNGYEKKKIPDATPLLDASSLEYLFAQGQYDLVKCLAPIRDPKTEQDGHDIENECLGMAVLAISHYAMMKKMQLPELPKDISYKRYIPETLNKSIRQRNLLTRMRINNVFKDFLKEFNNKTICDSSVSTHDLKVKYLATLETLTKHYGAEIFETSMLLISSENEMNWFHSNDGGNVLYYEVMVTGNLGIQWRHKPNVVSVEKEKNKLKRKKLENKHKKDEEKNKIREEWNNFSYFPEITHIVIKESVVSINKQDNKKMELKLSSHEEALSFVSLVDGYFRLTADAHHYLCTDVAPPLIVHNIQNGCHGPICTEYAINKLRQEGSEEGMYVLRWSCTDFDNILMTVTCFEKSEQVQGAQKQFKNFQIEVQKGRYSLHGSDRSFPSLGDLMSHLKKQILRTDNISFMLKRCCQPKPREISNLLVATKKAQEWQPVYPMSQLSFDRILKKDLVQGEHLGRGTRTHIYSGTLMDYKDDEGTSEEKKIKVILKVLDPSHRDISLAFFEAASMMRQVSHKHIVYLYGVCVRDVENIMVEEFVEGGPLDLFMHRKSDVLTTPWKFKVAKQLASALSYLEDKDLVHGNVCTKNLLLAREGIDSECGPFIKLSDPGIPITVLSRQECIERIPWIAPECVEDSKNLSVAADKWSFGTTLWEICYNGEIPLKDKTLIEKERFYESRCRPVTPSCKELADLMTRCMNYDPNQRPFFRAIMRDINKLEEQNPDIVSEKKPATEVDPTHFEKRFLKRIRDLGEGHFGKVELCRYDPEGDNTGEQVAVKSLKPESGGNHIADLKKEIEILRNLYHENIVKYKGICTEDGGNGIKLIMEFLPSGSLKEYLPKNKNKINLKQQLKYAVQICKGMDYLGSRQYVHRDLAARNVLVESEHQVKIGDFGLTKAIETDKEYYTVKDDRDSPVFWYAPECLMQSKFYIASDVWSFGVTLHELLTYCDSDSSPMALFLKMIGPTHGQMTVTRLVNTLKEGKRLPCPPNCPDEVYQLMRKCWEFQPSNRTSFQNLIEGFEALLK
Procedure: as §1, §2
Tris(hydroxymethyl)aminomethane (TRIS) and ethylenediaminetetraacetic acid (EDTA) were dissolved in distilled water at a concentration of 20 mM and 0.2 mM, respectively, and 100 uL of β-mercaptoethanol, 10 uL of Brij-35™, and 5 mL of glycerol, each per 100 mL of the solution, were added to the solution, thereby preparing a JAK1 dilution buffer solution.
as §4
After reaction for about 40 minutes at room temperature, the reaction was stopped by adding 5 uL of a 3% (v/v) phosphoric acid solution. […] The methanol drying is a drying process using an azeotropic effect, wherein methanol is added into an aqueous solution for drying.
as §6, §7

[3] = biological target: Human JAK2 (Homo sapiens (Human), UniProt O60674); experiment: In vitro kinase inhibition test, JAK2 (33P-ATP filter scintillation); conditions: compound at 1 uM; read-out: JAK2 kinase-phosphorylation inhibitory level (% inhibition)
Human JAK2, sequence (O60674 whole entry): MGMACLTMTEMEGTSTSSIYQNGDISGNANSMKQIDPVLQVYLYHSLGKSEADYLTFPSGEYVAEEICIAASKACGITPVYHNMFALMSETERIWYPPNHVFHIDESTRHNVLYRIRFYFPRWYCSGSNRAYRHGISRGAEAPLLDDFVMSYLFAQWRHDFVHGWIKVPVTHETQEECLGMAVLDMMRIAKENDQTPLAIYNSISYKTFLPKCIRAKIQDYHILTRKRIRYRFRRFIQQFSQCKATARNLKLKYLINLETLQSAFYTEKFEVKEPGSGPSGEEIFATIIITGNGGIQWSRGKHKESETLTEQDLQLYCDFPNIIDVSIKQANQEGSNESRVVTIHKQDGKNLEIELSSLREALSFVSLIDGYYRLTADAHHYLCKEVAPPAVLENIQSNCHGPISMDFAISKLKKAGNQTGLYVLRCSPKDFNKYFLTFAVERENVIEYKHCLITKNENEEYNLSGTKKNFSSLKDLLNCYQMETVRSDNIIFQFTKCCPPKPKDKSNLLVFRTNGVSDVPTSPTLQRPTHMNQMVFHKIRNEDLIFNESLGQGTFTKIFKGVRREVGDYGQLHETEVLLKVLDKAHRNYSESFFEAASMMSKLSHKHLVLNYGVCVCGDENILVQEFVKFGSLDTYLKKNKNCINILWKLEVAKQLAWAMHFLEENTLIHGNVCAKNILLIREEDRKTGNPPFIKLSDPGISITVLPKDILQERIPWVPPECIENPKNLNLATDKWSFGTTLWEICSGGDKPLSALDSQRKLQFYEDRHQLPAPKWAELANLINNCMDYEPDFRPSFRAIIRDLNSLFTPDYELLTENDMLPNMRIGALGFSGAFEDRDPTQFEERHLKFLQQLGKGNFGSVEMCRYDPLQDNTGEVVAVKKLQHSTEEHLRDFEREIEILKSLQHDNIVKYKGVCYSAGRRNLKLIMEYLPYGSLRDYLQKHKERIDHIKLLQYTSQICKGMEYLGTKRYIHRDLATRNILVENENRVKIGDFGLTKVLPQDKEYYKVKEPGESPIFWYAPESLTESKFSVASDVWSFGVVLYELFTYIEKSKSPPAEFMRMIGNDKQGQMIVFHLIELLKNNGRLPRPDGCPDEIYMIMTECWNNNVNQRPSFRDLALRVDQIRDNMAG
Procedure: as §1, §2, §3, §4, §5, §6, §7

[4] = biological target: Human JAK3 (Homo sapiens (Human), UniProt P52333); experiment: In vitro kinase inhibition test, JAK3 (33P-ATP filter scintillation); conditions: compound at 1 uM; read-out: JAK3 kinase-phosphorylation inhibitory level (% inhibition)
Human JAK3, sequence (P52333 whole entry): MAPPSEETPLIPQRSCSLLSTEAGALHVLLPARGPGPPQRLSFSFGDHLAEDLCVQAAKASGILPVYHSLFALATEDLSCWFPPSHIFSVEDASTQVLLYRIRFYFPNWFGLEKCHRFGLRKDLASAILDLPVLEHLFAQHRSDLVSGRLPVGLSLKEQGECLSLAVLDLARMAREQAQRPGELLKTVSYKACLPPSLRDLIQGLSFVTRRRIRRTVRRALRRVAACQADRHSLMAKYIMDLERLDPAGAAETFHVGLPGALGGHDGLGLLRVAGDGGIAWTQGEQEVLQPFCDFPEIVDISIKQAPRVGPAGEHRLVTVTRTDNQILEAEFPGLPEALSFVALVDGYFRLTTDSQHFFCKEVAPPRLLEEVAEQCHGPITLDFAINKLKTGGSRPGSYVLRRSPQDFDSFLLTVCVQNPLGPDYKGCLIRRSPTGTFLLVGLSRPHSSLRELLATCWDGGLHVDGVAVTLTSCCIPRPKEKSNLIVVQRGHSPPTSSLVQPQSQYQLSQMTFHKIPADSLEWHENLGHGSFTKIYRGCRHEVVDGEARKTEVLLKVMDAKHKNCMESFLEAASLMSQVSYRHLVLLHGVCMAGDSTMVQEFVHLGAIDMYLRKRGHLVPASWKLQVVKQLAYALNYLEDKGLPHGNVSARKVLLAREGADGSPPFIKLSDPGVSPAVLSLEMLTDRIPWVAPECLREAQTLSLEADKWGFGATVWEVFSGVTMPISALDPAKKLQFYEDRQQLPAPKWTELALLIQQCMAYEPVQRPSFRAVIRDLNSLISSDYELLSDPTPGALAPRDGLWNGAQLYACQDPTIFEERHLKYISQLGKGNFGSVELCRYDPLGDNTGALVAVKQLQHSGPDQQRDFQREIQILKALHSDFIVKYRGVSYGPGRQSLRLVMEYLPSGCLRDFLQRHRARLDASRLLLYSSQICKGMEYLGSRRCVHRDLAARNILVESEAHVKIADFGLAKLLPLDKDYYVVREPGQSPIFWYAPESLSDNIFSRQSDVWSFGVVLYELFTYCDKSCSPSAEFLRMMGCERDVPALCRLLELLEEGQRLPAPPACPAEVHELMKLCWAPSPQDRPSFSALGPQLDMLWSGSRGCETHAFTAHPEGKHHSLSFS
Procedure: as §1, §2, §3, §4, §5, §6, §7

| inhibition at 1 µM [1] | inhibition at 1 µM [2] | inhibition at 1 µM [3] | inhibition at 1 µM [4] | SMILES |
| --- | --- | --- | --- | --- |
| 30% | 94% | -3% | 31% | CCCCNC(=O)N1C[C@H](N(C)c2ncnc3[nH]ccc23)C2(CC2)C1 [Example 21, (R)-N-butyl-7-(methyl(7H-pyrrolo[2,3-d]pyrimidin-4-yl)amino)-5-azaspiro[2.4]heptane-5-carboxamide] |
| 15% | 90% | -5% | 16% | CN(c1ncnc2[nH]ccc12)[C@H]1CN(C(=O)NC2CCCCC2)CC12CC2 [Example 22, (R)-N-cyclohexyl-7-(methyl(7H-pyrrolo[2,3-d]pyrimidin-4-yl)amino)-5-azaspiro[2.4]heptane-5-carboxamide] |
| 78% | 98% | 52% | 50% | CN(c1ncnc2[nH]ccc12)[C@H]1CN(C(=O)Nc2ccccc2)CC12CC2 [Example 23, (R)-7-(methyl(7H-pyrrolo[2,3-d]pyrimidin-4-yl)amino)-N-phenyl-5-azaspiro[2.4]heptane-5-carboxamide] |
| 47% | 94% | 6% | 48% | CN(c1ncnc2[nH]ccc12)[C@H]1CN(C(=O)Nc2ccc(F)cc2)CC12CC2 [Example 24, (R)-N-(4-fluorophenyl)-7-(methyl(7H-pyrrolo[2,3-d]pyrimidin-4-yl)amino)-5-azaspiro[2.4]heptane-5-carboxamide] |
| 48% | 88% | 5% | 25% | CN(c1ncnc2[nH]ccc12)[C@H]1CN(C(=O)Nc2ccc(Cl)cc2Cl)CC12CC2 [Example 25, (R)-N-(2,4-dichlorophenyl)-7-(methyl(7H-pyrrolo[2,3-d]pyrimidin-4-yl)amino)-5-azaspiro[2.4]heptane-5-carboxamide] |
| 42% | 94% | 13% | 51% | CN(c1ncnc2[nH]ccc12)[C@H]1CN(C(=O)Nc2ccc(Cl)c(Cl)c2)CC12CC2 [Example 26, (R)-N-(3,4-dichlorophenyl)-7-(methyl(7H-pyrrolo[2,3-d]pyrimidin-4-yl)amino)-5-azaspiro[2.4]heptane-5-carboxamide] |
| 27% | 91% | -1% | 17% | CN(c1ncnc2[nH]ccc12)[C@H]1CN(C(=O)Nc2cc(Cl)ccc2Cl)CC12CC2 [Example 27, (R)-N-(2,5-dichlorophenyl)-7-(methyl(7H-pyrrolo[2,3-d]pyrimidin-4-yl)amino)-5-azaspiro[2.4]heptane-5-carboxamide] |
| 39% | 91% | 23% | 40% | CN(c1ncnc2[nH]ccc12)[C@H]1CN(C(=O)Nc2cccc(Cl)c2Cl)CC12CC2 [Example 28, (R)-N-(2,3-dichlorophenyl)-7-(methyl(7H-pyrrolo[2,3-d]pyrimidin-4-yl)amino)-5-azaspiro[2.4]heptane-5-carboxamide] |
| 43% | 92% | 19% | 39% | Cc1ccc(NC(=O)N2C[C@H](N(C)c3ncnc4[nH]ccc34)C3(CC3)C2)cc1Cl [Example 29, (R)-N-(3-chloro-4-methylphenyl)-7-(methyl(7H-pyrrolo[2,3-d]pyrimidin-4-yl)amino)-5-azaspiro[2.4]heptane-5-carboxamide] |
| 27% | 80% | -11% | 14% | CN(c1ncnc2[nH]ccc12)[C@H]1CN(C(=O)Nc2ccccc2-c2ccccc2)CC12CC2 [Example 30, (R)-N-([1,1′-biphenyl]-2-yl)-7-(methyl(7H-pyrrolo[2,3-d]pyrimidin-4-yl)amino)-5-azaspiro[2.4]heptane-5-carboxamide] |
| 1% | 62% | -26% | 13% | CN(c1ncnc2[nH]ccc12)[C@H]1CN(C(=S)Nc2cc(C(F)(F)F)cc(C(F)(F)F)c2)CC12CC2 [Example 31, (R)-N-(3,5-bis(trifluoromethyl)phenyl)-7-(methyl(7H-pyrrolo[2,3-d]pyrimidin-4-yl)amino)-5-azaspiro[2.4]heptane-5-carbothioamide] |
| 86% | 97% | 68% | 59% | CN(c1ncnc2[nH]ccc12)[C@H]1CN(S(=O)(=O)C(F)(F)F)CC12CC2 [Example 32, (R)-N-methyl-N-(5-((trifluoromethyl)sulfonyl)-5-azaspiro[2.4]heptan-7-yl)-7H-pyrrolo[2,3-d]pyrimidin-4-amine] |
| 88% | 98% | 84% | 70% | CCS(=O)(=O)N1C[C@H](N(C)c2ncnc3[nH]ccc23)C2(CC2)C1 [Example 33, (R)-N-(5-(ethylsulfonyl)-5-azaspiro[2.4]heptan-7-yl)-N-methyl-7H-pyrrolo[2,3-d]pyrimidin-4-amine] |
| 72% | 97% | 76% | 56% | CC(C)S(=O)(=O)N1C[C@H](N(C)c2ncnc3[nH]ccc23)C2(CC2)C1 [Example 34, (R)-N-(5-(isopropylsulfonyl)-5-azaspiro[2.4]heptan-7-yl)-N-methyl-7H-pyrrolo[2,3-d]pyrimidin-4-amine] |
| 89% | 99% | 78% | 77% | CCCS(=O)(=O)N1C[C@H](N(C)c2ncnc3[nH]ccc23)C2(CC2)C1 [Example 35, (R)-N-methyl-N-(5-(propylsulfonyl)-5-azaspiro[2.4]heptan-7-yl)-7H-pyrrolo[2,3-d]pyrimidin-4-amine] |
| 91% | 97% | 90% | 52% | CN(c1ncnc2[nH]ccc12)[C@H]1CN(S(=O)(=O)c2ccccc2)CC12CC2 [Example 36, (R)-N-methyl-N-(5-(phenylsulfonyl)-5-azaspiro[2.4]heptan-7-yl)-7H-pyrrolo[2,3-d]pyrimidin-4-amine] |
| 90% | 98% | 84% | 61% | CN(c1ncnc2[nH]ccc12)[C@H]1CN(S(=O)(=O)c2ccccc2F)CC12CC2 [Example 37, (R)-N-(5-((2-fluorophenyl)sulfonyl)-5-azaspiro[2.4]heptan-7-yl)-N-methyl-7H-pyrrolo[2,3-d]pyrimidin-4-amine] |
| 97% | 100% | 97% | 84% | CN(c1ncnc2[nH]ccc12)[C@H]1CN(S(=O)(=O)c2cccc(F)c2)CC12CC2 [Example 38, (R)-N-(5-((3-fluorophenyl)sulfonyl)-5-azaspiro[2.4]heptan-7-yl)-N-methyl-7H-pyrrolo[2,3-d]pyrimidin-4-amine] |
| 93% | 99% | 95% | 65% | CN(c1ncnc2[nH]ccc12)[C@H]1CN(S(=O)(=O)c2ccc(F)cc2)CC12CC2 [Example 39, (R)-N-(5-((4-fluorophenyl)sulfonyl)-5-azaspiro[2.4]heptan-7-yl)-N-methyl-7H-pyrrolo[2,3-d]pyrimidin-4-amine] |
| 72% | 94% | 64% | 47% | CN(c1ncnc2[nH]ccc12)[C@H]1CN(S(=O)(=O)c2ccccc2C#N)CC12CC2 [Example 40, (R)-2-((7-(methyl(7H-pyrrolo[2,3-d]pyrimidin-4-yl)amino)-5-azaspiro[2.4]heptan-5-yl)sulfonyl)benzonitrile] |
| 68% | 97% | 49% | 33% | CN(c1ncnc2[nH]ccc12)[C@H]1CN(S(=O)(=O)c2ccc(C#N)cc2)CC12CC2 [Example 42, (R)-4-((7-(methyl(7H-pyrrolo[2,3-d]pyrimidin-4-yl)amino)-5-azaspiro[2.4]heptan-5-yl)sulfonyl)benzonitrile] |
